Source: PubChem BioAssay AID248 (DTP/NCI, 2004)
Values joined by “and” are separate entries in the source; they are usually repeats but may differ in a detail not shown here. Identical values can stand only once. Inconclusive results and toxic doses are left out. No stated cut-off is given here; in the data, active means T/C of 150% or more; inactive means T/C below 125%.

Test system: L1210 leukemia ip in BDF1 mice, survival T/C
Test: NCI In Vivo Anticancer Drug Screen. Data for tumor model L1210 Leukemia (intraperitoneal) in B6D2F1 (BDF1) mice
Conditions: endpoint: mean survival time, higher = longer survival
In short: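 Antitumor effect is assessed in tumor-bearing animals. Survival in the compound arm is compared with a vehicle-dosed control arm and expressed as their quotient.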

[1] = dose: 100.0 mg/kg/injection, schedule: Q04DX003 (ip), vehicle: Klucel (hydroxypropylcellulose) (HPC)
[2] = dose: 200.0 mg/kg/injection, schedule: Q04DX003 (ip), vehicle: Klucel (hydroxypropylcellulose) (HPC)
[3] = dose: 400.0 mg/kg/injection, schedule: Q04DX003 (ip), vehicle: Klucel (hydroxypropylcellulose) (HPC)
[4] = dose: 100.0 mg/kg/injection, schedule: Q01DX009 (ip), vehicle: saline with Tween-80
[5] = dose: 200.0 mg/kg/injection, schedule: Q01DX009 (ip), vehicle: saline with Tween-80
[6] = dose: 12.5 mg/kg/injection, schedule: Q01DX009 (ip), vehicle: saline with Tween-80
[7] = dose: 25.0 mg/kg/injection, schedule: Q01DX009 (ip), vehicle: saline with Tween-80
[8] = dose: 50.0 mg/kg/injection, schedule: Q01DX009 (ip), vehicle: saline with Tween-80
[9] = dose: 50.0 mg/kg/injection, schedule: Q01DX001 (ip), vehicle: carboxymethylcellulose (CMC)
[10] = dose: 100.0 mg/kg/injection, schedule: Q01DX001 (ip), vehicle: carboxymethylcellulose (CMC)
[11] = dose: 200.0 mg/kg/injection, schedule: Q01DX001 (ip), vehicle: carboxymethylcellulose (CMC)
[12] = dose: 400.0 mg/kg/injection, schedule: Q01DX001 (ip), vehicle: carboxymethylcellulose (CMC)
[13] = dose: 100.0 mg/kg/injection, schedule: Q04DX002 (ip), vehicle: Klucel (hydroxypropylcellulose) (HPC)
[14] = dose: 200.0 mg/kg/injection, schedule: Q04DX002 (ip), vehicle: Klucel (hydroxypropylcellulose) (HPC)
[15] = dose: 400.0 mg/kg/injection, schedule: Q04DX002 (ip), vehicle: Klucel (hydroxypropylcellulose) (HPC)
[16] = dose: 100.0 mg/kg/injection, schedule: Q01DX001 (ip), vehicle: saline
[17] = dose: 200.0 mg/kg/injection, schedule: Q01DX001 (ip), vehicle: saline
[18] = dose: 400.0 mg/kg/injection, schedule: Q01DX001 (ip), vehicle: saline
[19] = dose: 100.0 mg/kg/injection, schedule: Q04DX003 (ip), vehicle: saline with Tween-80
[20] = dose: 200.0 mg/kg/injection, schedule: Q04DX003 (ip), vehicle: saline with Tween-80
[21] = dose: 400.0 mg/kg/injection, schedule: Q04DX003 (ip), vehicle: saline with Tween-80

Measured: T/C

c1ccc(-c2cccc(-c3ccccc3)c2)cc1
inactive: [1] 93 % of control | [2] 108 % of control | [3] 90 % of control

CCCCOCc1cc(CN2CCN(C)CC2)c(O)c2ncccc12
inactive: dose: 25.0 mg/kg/injection, schedule: Q04DX002 (ip), vehicle: saline 89 % of control | dose: 50.0 mg/kg/injection, schedule: Q04DX002 (ip), vehicle: saline 95 % of control | dose: 100.0 mg/kg/injection, schedule: Q04DX002 (ip), vehicle: saline 89 % of control

COC(=O)C(C)CC(C)(C)[N+](=O)[O-] (centres undefined)
inactive: [4] 97 % of control | [5] 103 % of control | dose: 400.0 mg/kg/injection, schedule: Q01DX009 (ip), vehicle: saline with Tween-80 97 % of control

COC1CCCC[CH]1[Hg][Br] (centres undefined)
inactive: dose: 0.78 mg/kg/injection, schedule: Q01DX009 (ip), vehicle: saline with Tween-80 90 % of control | dose: 1.56 mg/kg/injection, schedule: Q01DX009 (ip), vehicle: saline with Tween-80 96 % of control | dose: 3.13 mg/kg/injection, schedule: Q01DX009 (ip), vehicle: saline with Tween-80 96 % of control | [6] 93 % of control

O=[N+]([O-])c1ccc(Cl)c2ccccc12
inactive: [6] 94 % of control | [7] 91 % of control | [8] 87 % of control | [4] 91 % of control | [5] 88 % of control

ClC1=C(Cl)C2CCC1C2
inactive: [7] 88 % of control | [8] 98 % of control | dose: 100.0 mg/kg/injection, schedule: Q01DX005 (ip), vehicle: saline with Tween-80 96 % of control | [4] 94 % of control and 98 % of control | dose: 100.0 mg/kg/injection, schedule: Q04DX002 (ip), vehicle: saline with Tween-80 100 % of control | dose: 200.0 mg/kg/injection, schedule: Q01DX005 (ip), vehicle: saline with Tween-80 92 % of control | dose: 200.0 mg/kg/injection, schedule: Q04DX002 (ip), vehicle: saline with Tween-80 100 % of control | dose: 400.0 mg/kg/injection, schedule: Q01DX005 (ip), vehicle: saline with Tween-80 101 % of control

CC(C)(C)C1COC(=O)C1 (centres undefined)
inactive: dose: 10.0 mg/kg/injection, schedule: Q01DX001 (ip), vehicle: saline 103 % of control | dose: 20.0 mg/kg/injection, schedule: Q01DX001 (ip), vehicle: saline 98 % of control

O=C(/C=C(/C(=O)c1ccccc1)N1CC1)c1ccccc1
inactive: [9] 113 % of control | [10] 105 % of control | [11] 97 % of control | [12] 103 % of control

Cc1ccc(S(=O)(=O)Nc2ccc(Br)cc2)cc1
inactive: [10] 105 % of control | [11] 105 % of control | [12] 107 % of control

COC1(c2ccccc2)c2cc3ccccc3cc2C(OC)(c2ccccc2)c2cc3ccccc3cc21 (centres undefined)
inactive: [13] 98 % of control | [14] 109 % of control | [15] 95 % of control

CN(C)c1ccc(/C=C\c2ccnc3ccccc23)cc1
inactive: dose: 10.0 mg/kg/injection, schedule: Q01DX Z (ip), vehicle: methylcellulose (MC) 98 % of control | dose: 18.0 mg/kg/injection, schedule: Q01DX010 (ip), vehicle: saline 93 % of control and 102 % of control | dose: 27.0 mg/kg/injection, schedule: Q01DX010 (ip), vehicle: saline 95 % of control and 102 % of control | dose: 40.0 mg/kg/injection, schedule: Q01DX010 (ip), vehicle: saline 101 % of control and 91 % of control | [9] 106 % of control | dose: 60.0 mg/kg/injection, schedule: Q01DX010 (ip), vehicle: saline 86 % of control and 90 % of control | [10] 97 % of control | [11] 89 % of control | [12] 101 % of control

CC1OC(O)C(N)C(O)C1O (centres undefined)
inactive: [16] 107 % of control | [17] 106 % of control | [18] 106 % of control

CN=C(NC)c1cccc(NC(=O)/C=C\c2ccc(/C=C/C(=O)Nc3cccc(C(=NC)NC)c3)cc2)c1
inactive: dose: 0.56 mg/kg/injection, schedule: Q01DX Z (ip), vehicle: carboxymethylcellulose (CMC) 103 % of control | dose: 1.12 mg/kg/injection, schedule: Q01DX Z (ip), vehicle: carboxymethylcellulose (CMC) 103 % of control | dose: 2.25 mg/kg/injection, schedule: Q01DX Z (ip), vehicle: carboxymethylcellulose (CMC) 120 % of control

C1CCCN(/N=N/N2CCCCCC2)CC1
inactive: dose: 100.0 mg/kg/injection, schedule: Q01DX001 (ip), vehicle: saline with Tween-80 100 % of control | dose: 200.0 mg/kg/injection, schedule: Q01DX001 (ip), vehicle: saline with Tween-80 92 % of control | dose: 400.0 mg/kg/injection, schedule: Q01DX001 (ip), vehicle: saline with Tween-80 100 % of control

Cc1cccc2c(N3CCOCC3)c3c(nc12)CCCCC3
inactive: [19] 96 % of control | [20] 95 % of control | [21] 101 % of control

CC1(C)OC2OC(COC(=O)c3ccccc3)C(=O)C2O1 (centres undefined)
inactive: dose: 50.0 mg/kg/injection, schedule: Q01DX001 (ip), vehicle: saline 101 % of control | [16] 106 % of control | [17] 101 % of control | [18] 98 % of control

O=C1c2ccccc2C(=O)C1c1ccccc1
inactive: [1] 102 % of control | [2] 104 % of control | [3] 106 % of control

O=C(O)CC[P+](c1ccccc1)(c1ccccc1)c1ccccc1
inactive: [19] 90 % of control | [20] 98 % of control | [21] 93 % of control

CC(C)(C)Sc1cc(C#N)ccn1
inactive: dose: 50.0 mg/kg/injection, schedule: Q04DX003 (ip), vehicle: other 100 % of control and 92 % of control | dose: 100.0 mg/kg/injection, schedule: Q04DX002 (ip), vehicle: other 103 % of control and 109 % of control | dose: 200.0 mg/kg/injection, schedule: Q04DX002 (ip), vehicle: other 98 % of control and 102 % of control | dose: 400.0 mg/kg/injection, schedule: Q04DX002 (ip), vehicle: other 103 % of control and 106 % of control

COc1ccc(-c2ccns2)cc1
inactive: [10] 93 % of control | [11] 92 % of control

COc1cc(C(=O)COC(C)=O)cc(OC)c1OC(C)=O
inactive: [16] 88 % of control | [17] 89 % of control | [18] 89 % of control

O=C(Nc1cccc(C(F)(F)F)c1)c1ccc(F)cc1
inactive: [13] 91 % of control | [14] 102 % of control | [15] 88 % of control

[O-][n+]1onc2ccc(Cl)cc21
inactive: dose: 25.0 mg/kg/injection, schedule: Q01DX009 (ip), vehicle: Klucel (hydroxypropylcellulose) (HPC) 101 % of control | dose: 50.0 mg/kg/injection, schedule: Q01DX009 (ip), vehicle: Klucel (hydroxypropylcellulose) (HPC) 98 % of control | dose: 100.0 mg/kg/injection, schedule: Q01DX009 (ip), vehicle: Klucel (hydroxypropylcellulose) (HPC) 95 % of control
